Test results published in article PMC5589751, “Synthesis, high-throughput screening and pharmacological characterization of β–lactam derivatives as TRPM8 antagonists” (Scientific Reports, 2017).

Legend:
Assay type in all cases: cell-based
TRPA1 = TRPA1 (Homo sapiens, UniProt O75762); experiment: Whole-cell patch clamp in cells expressing TRPA1
Procedure: Electrophysiological recording was carried out 1-3 d after cells seeded. Membrane currents and voltages were recorded by patch clamp using the whole-cell configuration. […] In calcium-free bath solution, CaCl2 was replaced with 5mM EGTA. For potassium and sodium recordings, CsCl was substituted by KCl and the pH was adjusted to pH 7.2 with KOH. Patch pipettes were prepared from thin-walled borosilicate glass capillaries (World Precision Instruments, Sarasota, FL, USA), pulled with a horizontal puller (P-97, Sutter Instruments, Novato, CA, USA) to have a tip resistance of 2-4 MΩ when filled with internal solutions. Data were sampled at 10 kHz (EPC10 amplifier with PatchMaster 2.53 software, HEKA Electronics, Lambrecht, Germany) and low-pass filtered at 3 kHz for analysis (PatchMaster 2.53 and GraphPad Prism 5, Graphpad Software, USA). The series resistance was <10 MΩ and to minimize voltage errors was compensated to 60-80%. All measurements were performed at 24-25°C. The temperature was adjusted with a water-cooled Peltier device placed at the inlet of the chamber and controlled by a feedback device (Automatic Temperature Controller TC-324B, Warner Instruments). Cold-sensitivity was investigated with a temperature decrease to 16-18 °C. page 44: Figure 1S. […] A) […] compound 41 (blue line). Pre-application of compound (20 s) was followed by coapplication with 500 […] 41. […] C) […] Pre-application of […] Voltage was held at -60 mV for all the experiments. […] (1 picture or pasted object on this page, not shown here)

NaV1.6 = NaV1.6 (Homo sapiens, UniProt Q9UQD0); experiment: Whole-cell patch clamp in cells expressing NaV1.6
NaV1.6, sequence (Q9UQD0 whole entry): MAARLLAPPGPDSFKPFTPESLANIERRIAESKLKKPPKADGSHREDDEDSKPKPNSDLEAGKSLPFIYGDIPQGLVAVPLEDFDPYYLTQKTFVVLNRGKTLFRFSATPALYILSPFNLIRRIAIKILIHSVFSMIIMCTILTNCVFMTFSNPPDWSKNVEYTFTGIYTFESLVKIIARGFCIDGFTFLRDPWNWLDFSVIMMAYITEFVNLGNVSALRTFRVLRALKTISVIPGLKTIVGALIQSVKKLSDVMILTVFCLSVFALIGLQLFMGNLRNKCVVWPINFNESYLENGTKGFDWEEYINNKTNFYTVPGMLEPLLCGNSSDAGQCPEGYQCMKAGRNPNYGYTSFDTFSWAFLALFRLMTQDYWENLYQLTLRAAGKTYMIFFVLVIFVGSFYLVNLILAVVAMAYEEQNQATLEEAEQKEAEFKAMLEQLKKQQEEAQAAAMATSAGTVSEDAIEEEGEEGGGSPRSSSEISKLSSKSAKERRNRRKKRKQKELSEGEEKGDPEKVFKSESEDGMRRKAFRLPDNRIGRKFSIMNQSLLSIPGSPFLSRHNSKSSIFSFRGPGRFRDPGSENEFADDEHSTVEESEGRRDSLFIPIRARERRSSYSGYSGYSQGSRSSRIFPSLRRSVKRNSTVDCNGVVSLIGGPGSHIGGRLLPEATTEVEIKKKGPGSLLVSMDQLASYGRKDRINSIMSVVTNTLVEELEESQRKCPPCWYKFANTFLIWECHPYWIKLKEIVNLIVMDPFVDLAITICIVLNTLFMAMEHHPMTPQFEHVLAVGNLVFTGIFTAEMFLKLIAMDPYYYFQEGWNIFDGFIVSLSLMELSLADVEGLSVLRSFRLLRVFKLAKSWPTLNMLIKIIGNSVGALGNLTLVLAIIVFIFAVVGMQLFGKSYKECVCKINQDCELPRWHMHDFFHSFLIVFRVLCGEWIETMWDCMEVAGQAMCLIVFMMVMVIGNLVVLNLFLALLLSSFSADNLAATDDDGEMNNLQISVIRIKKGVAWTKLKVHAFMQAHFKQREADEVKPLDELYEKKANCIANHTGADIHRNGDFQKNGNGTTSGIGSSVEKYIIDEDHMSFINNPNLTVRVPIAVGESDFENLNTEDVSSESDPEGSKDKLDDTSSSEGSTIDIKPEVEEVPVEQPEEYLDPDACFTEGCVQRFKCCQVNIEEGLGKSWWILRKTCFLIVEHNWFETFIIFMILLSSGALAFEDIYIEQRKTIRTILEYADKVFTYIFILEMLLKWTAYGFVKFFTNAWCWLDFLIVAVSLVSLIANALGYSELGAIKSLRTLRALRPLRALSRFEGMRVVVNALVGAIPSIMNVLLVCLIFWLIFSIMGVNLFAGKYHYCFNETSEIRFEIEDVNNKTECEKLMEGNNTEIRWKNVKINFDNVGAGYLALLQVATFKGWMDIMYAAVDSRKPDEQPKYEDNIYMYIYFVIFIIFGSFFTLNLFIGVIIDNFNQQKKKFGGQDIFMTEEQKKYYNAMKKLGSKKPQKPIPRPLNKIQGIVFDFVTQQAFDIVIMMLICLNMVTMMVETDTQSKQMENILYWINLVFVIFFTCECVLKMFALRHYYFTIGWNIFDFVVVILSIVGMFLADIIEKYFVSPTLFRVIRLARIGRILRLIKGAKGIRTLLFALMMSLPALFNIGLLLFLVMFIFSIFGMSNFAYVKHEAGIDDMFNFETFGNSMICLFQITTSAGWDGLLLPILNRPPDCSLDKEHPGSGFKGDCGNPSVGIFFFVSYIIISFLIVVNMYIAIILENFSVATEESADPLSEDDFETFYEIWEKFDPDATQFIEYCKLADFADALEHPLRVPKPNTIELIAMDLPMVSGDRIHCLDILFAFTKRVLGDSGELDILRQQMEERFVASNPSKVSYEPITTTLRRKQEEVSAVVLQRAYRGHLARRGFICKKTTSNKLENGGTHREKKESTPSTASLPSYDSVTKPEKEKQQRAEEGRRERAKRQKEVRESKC
Procedure: Electrophysiological recording was carried out 1–3 d after cells seeded. Membrane currents and voltages were recorded by patch clamp using the whole-cell configuration. For whole-cell recordings of HEK-hTRPV1 and HEK-TRPM8 cells, pipette solution contained (in mM) 140 CsCl, 5 EGTA, and 10 HEPES, adjusted to pH 7.2 with CsOH, and bath solution contained (in mM) 140 NaCl, 5 KCl, 2 CaCl2, 2 MgCl2, 5 EGTA, 10 D-glucose, 10 Mannitol and 10 HEPES, adjusted to pH 7.4 with NaOH. In calcium-free bath solution, CaCl2 was replaced with 5mM EGTA. For potassium and sodium recordings, CsCl was substituted by KCl and the pH was adjusted to pH 7.2 with KOH. Patch pipettes were prepared from thin-walled borosilicate glass capillaries (World Precision Instruments, Sarasota, FL, USA), pulled with a horizontal puller (P-97, Sutter Instruments, Novato, CA, USA) to have a tip resistance of 2–4 MΩ when filled with internal solutions. Data were sampled at 10 kHz (EPC10 amplifier with PatchMaster 2.53 software, HEKA Electronics, Lambrecht, Germany) and low-pass filtered at 3 kHz for analysis (PatchMaster 2.53 and GraphPad Prism 5, Graphpad Software, USA). The series resistance was <10 MΩ and to minimize voltage errors was compensated to 60–80%. All measurements were performed at 24–25°C. […]

TRPM8 = target: T1, TRPM8 (Rattus norvegicus, UniProt Q8R455); experiment: Ca2+ microfluorography (Fluo-4 NW), menthol-induced Ca2+ signal in HEK-CR1-TRPM8 cells; details: for % Block TRPM8 50 µM: 50 µM compound; for % Block TRPM8 50 µM / IC50: agonist 100 µM menthol, HEK-CR1-TRPM8 cells
T1 construct: expressed in transfected cells
T1 sequence (Q8R455 whole entry): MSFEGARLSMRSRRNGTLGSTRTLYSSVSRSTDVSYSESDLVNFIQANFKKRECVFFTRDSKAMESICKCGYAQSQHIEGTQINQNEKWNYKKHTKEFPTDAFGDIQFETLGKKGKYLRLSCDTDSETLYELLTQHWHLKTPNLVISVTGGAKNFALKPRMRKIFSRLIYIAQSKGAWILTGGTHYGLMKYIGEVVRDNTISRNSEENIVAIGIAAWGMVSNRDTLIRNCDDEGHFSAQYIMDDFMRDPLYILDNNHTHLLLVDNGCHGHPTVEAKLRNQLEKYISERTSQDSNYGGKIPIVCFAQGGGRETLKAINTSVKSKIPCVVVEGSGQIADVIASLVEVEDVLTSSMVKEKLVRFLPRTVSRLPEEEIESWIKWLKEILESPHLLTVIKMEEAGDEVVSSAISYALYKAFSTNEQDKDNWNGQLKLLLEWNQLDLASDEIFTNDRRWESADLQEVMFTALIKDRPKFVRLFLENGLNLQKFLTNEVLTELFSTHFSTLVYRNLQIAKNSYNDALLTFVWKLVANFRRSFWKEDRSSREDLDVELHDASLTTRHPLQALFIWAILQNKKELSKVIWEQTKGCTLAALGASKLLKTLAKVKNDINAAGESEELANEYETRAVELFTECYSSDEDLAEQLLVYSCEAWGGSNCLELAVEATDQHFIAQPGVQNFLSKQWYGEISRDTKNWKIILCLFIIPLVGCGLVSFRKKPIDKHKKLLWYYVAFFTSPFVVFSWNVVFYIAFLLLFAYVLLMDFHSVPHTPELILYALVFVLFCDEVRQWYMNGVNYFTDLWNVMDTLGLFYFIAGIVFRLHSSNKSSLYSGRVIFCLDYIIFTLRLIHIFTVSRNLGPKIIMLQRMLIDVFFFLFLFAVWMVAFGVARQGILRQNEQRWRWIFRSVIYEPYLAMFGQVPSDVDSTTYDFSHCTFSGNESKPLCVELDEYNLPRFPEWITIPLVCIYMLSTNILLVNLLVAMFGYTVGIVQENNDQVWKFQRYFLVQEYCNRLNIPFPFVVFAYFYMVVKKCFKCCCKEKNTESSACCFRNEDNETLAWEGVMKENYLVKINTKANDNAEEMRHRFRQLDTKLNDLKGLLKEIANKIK
Procedure: All compounds were tested at two different concentrations (50 and 5 µM) on TRPM8 and TRPV1 channels stably expressed in HEK and SH-SY5Y cell lines, respectively. The agonist induced intracellular Ca^2+ signals were measured using a fluorescent Ca^2+ indicator, in the absence and in the presence of test compounds. […] The obtained results were compared to those of 68 (AMTB, TRPM8 antagonist) and ruthenium red (TRPV1 antagonist). The IC50 values for the assay on TRPM8 were also calculated.
For fluorescence assays, cells expressing TRP channels (SH-SY5Y-TRPV1 and HEKCR1-TRPM8) were seeded in 96-well plates (Corning Incorporated, Corning, NY) at a cell density of 40,000 cells 2 days before treatment. The day of treatment the medium was replaced with 100 µL of the dye loading solution Fluo-4 NW supplemented with probenecid 2.5 mM. Then the compounds dissolved in DMSO were added at the desired concentrations and the plate(s) were incubated at 37 °C in a humidified atmosphere of 5% CO2 for 60 minutes.
The fluorescence was measured using instrument settings appropriate for excitation at 485 nm and emission at 535 nm (POLARstar Omega BMG LABtech). […] The corresponding antagonist
(10 µM Ruthenium Red forTRPV1 and 10 µM 68 for TRPM8) was added for the blockade. The changes in fluorescence intensity were recorded during 15 cycles more. […] The blocking percentage was calculated as follow (Eq. 1):1 %TRPBlockedResponse=(1−Fo−Fi/FCo−FCi)∗100 where Fo is the fluorescence after the addition of menthol in the presence of the compound, Fi is the fluorescence before the addition of menthol in the presence of the compound, FCo is the fluorescence after the addition of menthol in the absence of the compound, FCi is the fluorescence before the addition of menthol in the absence of the compound. To guarantee that our results were useful we only used assays with a Z-factor higher than 0.5.
The statistical Z-factor to determine the quality of the HTS experiment as was calculated using the equation 2:2 Z‐factor=1−3∗(SDmax+SDmin)/Meanmax−Meanmin where: Meanmax is the mean of the maximum fluorescence in the presence of agonist, SDmax is the standard deviation of the maximum fluorescence in the presence of agonists, Meanmin is the mean of the maximum fluorescence in the presence of agonist and antagonist and SDmin is the standard deviation of the maximum fluorescence in the presence of agonist and antagonist.

TRPA1, sequence (O75762 whole entry, species assumed): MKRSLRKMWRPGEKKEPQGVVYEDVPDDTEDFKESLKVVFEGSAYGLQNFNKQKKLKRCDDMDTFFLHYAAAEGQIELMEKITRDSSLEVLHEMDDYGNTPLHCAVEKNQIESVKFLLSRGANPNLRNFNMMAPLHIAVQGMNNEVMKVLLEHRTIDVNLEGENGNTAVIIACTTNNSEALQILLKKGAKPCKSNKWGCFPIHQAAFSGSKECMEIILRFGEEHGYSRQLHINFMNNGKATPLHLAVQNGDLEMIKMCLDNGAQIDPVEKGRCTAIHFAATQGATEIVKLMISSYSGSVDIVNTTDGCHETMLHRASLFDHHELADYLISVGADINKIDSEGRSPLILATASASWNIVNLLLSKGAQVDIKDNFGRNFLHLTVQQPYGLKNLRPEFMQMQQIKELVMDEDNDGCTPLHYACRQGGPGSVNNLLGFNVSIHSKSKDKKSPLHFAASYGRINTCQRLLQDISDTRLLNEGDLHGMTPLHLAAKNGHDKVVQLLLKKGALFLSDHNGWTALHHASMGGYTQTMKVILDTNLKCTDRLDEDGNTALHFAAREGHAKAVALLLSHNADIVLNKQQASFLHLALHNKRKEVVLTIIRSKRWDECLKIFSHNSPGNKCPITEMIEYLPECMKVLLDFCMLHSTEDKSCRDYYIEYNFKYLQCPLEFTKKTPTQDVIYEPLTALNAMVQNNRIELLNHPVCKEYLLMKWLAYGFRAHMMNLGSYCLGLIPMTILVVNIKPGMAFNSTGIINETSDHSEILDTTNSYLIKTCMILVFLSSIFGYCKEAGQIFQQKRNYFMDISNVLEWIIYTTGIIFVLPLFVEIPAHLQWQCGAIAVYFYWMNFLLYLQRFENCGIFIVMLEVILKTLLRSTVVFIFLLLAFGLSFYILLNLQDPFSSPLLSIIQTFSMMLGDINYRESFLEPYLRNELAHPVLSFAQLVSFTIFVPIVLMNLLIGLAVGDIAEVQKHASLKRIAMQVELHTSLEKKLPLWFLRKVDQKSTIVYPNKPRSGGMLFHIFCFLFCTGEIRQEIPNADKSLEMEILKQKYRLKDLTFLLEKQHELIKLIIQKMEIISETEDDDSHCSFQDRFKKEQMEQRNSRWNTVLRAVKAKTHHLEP

Structure (SMILES) | IC50 (TRPA1) | agonist activity (activation) on TRPA1 (TRPA1; 1 µM compound, −60 mV) | IC50 (NaV1.6) | blocking effect against TRPM8 at 5 µM (TRPM8; 5 µM compound) | % Block TRPM8 50 µM (TRPM8) | IC50 (TRPM8)
CC(C)(C)OC(=O)N[C@@H](CCN1C(=O)CC1(Cc1ccccc1)C(=O)OCc1ccccc1)C(=O)OCc1ccccc1 (stereo partly shown) [Compound 41, 4R,S-Benzyl-4-benzyloxycarbonyl-1-[(3′S-benzyloxycarbonyl-3-tert-butoxycarbonylamino-3′-benzyloxycarbonyl)prop-1′-yl]-2-oxoazetidine] | > 1000 nM | did not produce activation | > 1000 nM | 95% | 96.3 ± 1.6% | 420 nM
CC1C(=O)N(CC[C@H](NC(=O)OC(C)(C)C)C(=O)OCc2ccccc2)C1(Cc1ccccc1)C(=O)OCc1ccccc1 (stereo partly drawn) [Compound 45, 4R,S-Benzyl-4-benzyloxycarbonyl-1-[(3′S-benzyloxycarbonyl-3′-tert-butoxycarbonylamino)prop-1′-yl]-(3R,S)-methyl-2-oxoazetidine] | > 1000 nM | – | > 1000 nM | – | 100% | 800 ± 1170 nM
